Measurements as given in patent US11498933B2, “Prodrug compositions” (The University of Liverpool, priority 2017, dated 2022).

Columns and labels:
[1] = Half-life measurements in human plasma (HPLC-UV); assay type: in vitro ADME; details: human, plasma, 37° C., hydrolysis through two potential pathways, read-out: hydrolysis half-life in human plasma (converted)
Description: To evaluate the hydrolysis rates of emtricitabine compounds 9-16, HPLC coupled with UV detection was used with the following method (0% to 100% acetonitrile in Et3NHOAc (50 mM, pH 8) gradient) over 10 minutes at a flow rate of 3 mL min^−1, held at 100% acetonitrile for 3 minutes, ramped down to 5% acetonitrile over 0.2 minutes and then held for 2.8 minutes. Male human plasma (Bioreclamation) or female human skeletal muscle S9 (7.96 mg/mL, Bioreclamation) was pre-incubated at 37° C. for 5 minutes. Compounds 9-16 (1 mM) were added and the reaction was incubated at 37° C. […] The supernatant was diluted 10 fold into Tris buffer (30 mM, pH 7.4) and injected onto the HPLC for analysis.
To evaluate the hydrolysis rates of emtricitabine trimethyl lock prodrugs, HPLC coupled with UV detection was used with the following method (0% to 100% acetonitrile in Et3NHOAc (50 mM, pH 8) gradient) over 10 minutes at a flow rate of 3 mL min^−1, held at 100% acetonitrile for 3 minutes, ramped down to 5% acetonitrile over 0.2 minutes and then held for 2.8 minutes. Human plasma (Bioreclamation) or human skeletal muscle S9 (7.96 mg/mL, Bioreclamation) was pre-incubated at 37° C. for 5 minutes. Emtricitabine trimethyl lock compound 25 (1 mM) was added and the reaction was incubated at 37° C. […] The supernatant was diluted in Tris buffer (100 mM, pH 7.4) and injected onto the HPLC for analysis. […]

[2] = Kinetic analysis of 5′-acyloxy/alkoxycarbonyl prodrug hydrolysis in human liver S9 (HPLC-UV); assay type: in vitro ADME; details: for Km: both sexes, human, pooled human liver S9, pH 7.4, 17: 5′-acetoxy hydrolysis, 1.0 mg/mL S9, 5: 5′-pentoxycarbonyl hydrolysis, 3.0 mg/mL S9, 37° C.; for Km / Intrinsic Clearance / Vmax: conversion to compound 13; for Intrinsic Clearance / Vmax: 17: 1.0 mg/mL S9, 5: 3.0 mg/mL S9; for half-lives in human liver S9: FIG. 7
Description: A reaction mixture containing Tris buffer (30 mM, pH 7.4) and mixed pooled gender liver S9 (1 mg/mL, 3.0 mg/mL, or 4.0 mg/mL) are pre-incubated at 37° C. for 5 minutes. To the reaction mixtures is added compound 17 which initiates the hydrolysis reaction (concentrations of compound 17 ranging from 200 μM to 10 mM). […] The supernatant was diluted into Tris buffer (30 mM, pH 7.4) to yield samples with concentrations appropriate for analysis. The samples were analyzed by HPLC with UV detection using the following method (0% to 100% acetonitrile in Et3NHOAc (50 mM, pH 8) gradient) over 10 minutes at a flow rate of 3 mL min^−1, held at 100% acetonitrile for 3 minutes, ramped down to 5% acetonitrile over 0.2 minutes and then held for 2.8 minutes.
Kinetic analysis data for the conversion of compound 17 to compound 13 via 5′-acetoxy hydrolysis is illustrated in FIG. 5. The hydrolysis was performed under conditions in which the pentyl carbamate group of compound 17 is stable in 1.0 mg/mL pooled mixed gender human liver S9. It was observed that the intrinsic clearance for the 5′-acetoxy hydrolysis is greater than that for the carbamate group hydrolysis.
Kinetic analysis data for the conversion of compound 5 to compound 13 via 5′-pentoxycarbonyl hydrolysis is illustrated in FIG. 6 (concentrations of compound 5 ranging from 200 μM to 10 mM). The hydrolysis was performed under conditions in which the pentyl carbamate group is stable in 3.0 mg/mL pooled mixed gender human liver S9. It was observed that the intrinsic clearance for 5′-pentoxycarbonyl hydrolysis is greater than that for carbamate group hydrolysis but reduced when compared to the intrinsic clearance of the 5′-acetoxy hydrolysis. Kinetic analysis data for the conversion of compound 17 to compound 13 via 5′-acetoxy hydrolysis and the conversion of compound 5 to compound 13 via 5′-pentoxycarbonyl hydrolysis is presented in Table 1 below.
Kinetic analysis data for compounds 20 and 21 in human liver S9 was generated in accordance with the general procedure described above.

[3] = Prodrug hydrolysis in human plasma; assay type: in vitro ADME; details: 37° C., depletion of starting material, read-out: Human Plasma t1/2
Description: (§1) Reaction mixtures containing either mouse liver S9 (20.8 mg/mL), mouse plasma, rat liver S9 (1 mg/mL) and phosphate buffer (100 mM, pH 7.4), rat plasma, human liver S9 (1.0 mg/mL) and phosphate buffer (100 mM, pH 7.4) or human plasma were pre-incubated at 37° C. for 5 minutes. Reactions were then initiated by addition of compounds 4, 8 or 16 (1 mM in mouse, 0.5 mM in rat and human). […] The samples were analyzed by HPLC with UV detection and the resulting hydrolysis data can be seen in FIG. 12.
(§2) In all cases, the half-lives for compound 4 are shorter than that of compound 8. […] In all cases, the half-life indicates the depletion of starting material compounds. […] In human compartments, only carbonate cleavage is observed.

[4] = Prodrug hydrolysis in rat liver S9; assay type: in vitro ADME; details: pH 7.4, rat liver S9 1 mg/mL, 37° C., depletion of starting material, read-out: Rat Liver t1/2
Description: as §1, §2

[5] = Prodrug hydrolysis in rat plasma; assay type: in vitro ADME; details: 37° C., depletion of starting material, read-out: Rat Plasma t1/2
Description: as §1, §2

[6] = Prodrug hydrolysis in human liver S9; assay type: in vitro ADME; details: pH 7.4, human liver S9 1.0 mg/mL, 37° C., depletion of starting material, read-out: Human Liver t1/2
Description: as §1, §2

CYP enzymes = experiment: Cytochrome P450 activity in human liver microsomes; details: 1 mM, 2.0 mg/mL pooled mixed gender human liver microsomes
Description: (§3) Reaction mixtures containing phosphate buffer (100 mM, pH 7.4), mixed pooled gender human liver microsomes (2.0 mg/mL), NADP+ (1 mM), glucose-6-phosphate (5 mM), and glucose-6-phosphate dehydrogenase (1.5 Unit/mL) were pre-incubated at 37° C. for 5 minutes. The reactions were then initiated via the addition of emtricitabine or compound 13 (1 mM). After incubation at 37° C., aliquots were taken at each time point and quenched in two volumes of ice-cold methanol. The quenched aliquots were then centrifuged at 14000 rpm for 4 minutes. The supernatant was then diluted into phosphate buffer (100 mM, pH 7.4) to yield samples with concentrations suitable for analysis. The samples were analyzed by HPLC with UV detection using the following method (0% to 100% acetonitrile in Et3NHOAc (50 mM, pH 8) gradient) over 10 minutes at a flow rate of 3 mL min^−1, held at 100% acetonitrile for 3 minutes, ramped down to 5% acetonitrile over 0.2 minutes and then held for 2.8 minutes.

UGT enzymes = experiment: UGT activity in human liver S9; details: 1 mM, human liver S9 2.0 mg/mL, UDPGA 8 mM
Description: as §3, with “S9” for “microsomes”, “MgCl2 (10” for “NADP+ (1”, “UDPGA (8” for “glucose-6-phosphate (5”, “D-saccharic acid-1,4-lactone (2 mM)” for “glucose-6-phosphate dehydrogenase (1.5 Unit/mL)”, “by” for “via”

CD4+ T cells = experiment: Viability staining (Zombie Red) in single-round infectivity assay
Description: Peripheral blood mononuclear cells were isolated from healthy blood donors using Hypaque-Ficoll gradient centrifugation. CD4+ T cells were selected by magnetic beads (Miltenyi) and activated using anti-CD3 and anti-CD28 antibodies. Activated cells were seeded onto a 96-well plate at a concentration of 1×10^5 cells/well in RPMI1640 supplemented with 10% FBS, cytokine-rich supernatant, and 50% heat-inactivated human serum. Test compounds were added at this step and maintained throughout the culture. Cells were incubated at 37° C. for 21 hours. Pseudotype (GFP-tagged) HIV was then added to the culture via spinoculation and incubated for 3 days. Cells were then washed and stained with Zombie Red viability stain. Infectivity was quantified using flow cytometry.

Compound: CC(=O)Oc1cc(C)cc(C)c1C(C)(C)CC(=O)Nc1ncnc2c1ncn2C[C@@H](C)OCP(=O)(N[C@@H](C)C(=O)OC(C)C)Oc1ccccc1 (stereo partly drawn) [Compound 26, (2S)-isopropyl (((((R)-1-(6-(3-(2-acetoxy-4,6-dimethylphenyl)-3-methylbutanamido)-9H-purin-9-yl)propan-2-yl)oxy)methyl)(phenoxy)phosphoryl)-L-alaninate]
- half-life at 1 mM [1]: 66 min

Compound: CCCCCOC(=O)Nc1nc(=O)n([C@@H]2CS[C@H](COC(C)=O)O2)cc1F [Compound 17, ((2R,5S)-5-(5-fluoro-2-oxo-4-(((pentyloxy)carbonyl)amino)pyrimidin-1 (2H)-yl)-1,3-oxathiolan-2-yl)methyl acetate]
- Km [2]: 1310 µM
- Intrinsic Clearance [2]: 62.05 µL/min/mg
- Vmax [2]: 4877 nmol/h/mg

Compound: CCCCCCCCOC(=O)Nc1nc(=O)n([C@@H]2CS[C@H](COC(=O)C(C)C)O2)cc1F [Compound 21, ((2R,5S)-5-(5-fluoro-4-(((octyloxy)carbonyl)amino)-2-oxopyrimidin-1 (2H)-yl)-1,3-oxathiolan-2-yl)methyl isobutyrate]
- half-lives in human liver S9 [2]: comparable half-lives

Compound: CCCCOC(=O)Nc1nc(=O)n([C@@H]2CS[C@H](COC(=O)OCCCC)O2)cc1F [Compound 4, butyl (1-((2R,5S)-2-(((butoxycarbonyl)oxy)methyl)-1,3-oxathiolan-5-yl)-5-fluoro-2-oxo-1,2-dihydropyrimidin-4-yl)carbamate]
- half-life at 0.5 mM [3]: 59.2 min
- half-life at 0.5 mM [4]: 4.6 min
- half-life at 0.5 mM [5]: 5.8 min
- half-life at 0.5 mM [6]: 10.3 min

Compound: CCCCCCCCOC(=O)Nc1nc(=O)n([C@@H]2CS[C@H](COC(=O)OCCCCCCCC)O2)cc1F [Compound 8, octyl (5-fluoro-1-((2R,5S)-2-((((octyloxy)carbonyl)oxy)methyl)-1,3-oxathiolan-5-yl)-2-oxo-1,2-dihydropyrimidin-4-yl)carbamate]
- half-life at 0.5 mM [3]: 578 min
- half-life at 0.5 mM [4]: 33.3 min
- half-life at 0.5 mM [5]: 16.7 min
- half-life at 0.5 mM [6]: 151 min

Compound: CCCCCCCCOC(=O)Nc1nc(=O)n([C@@H]2CS[C@H](COC(C)=O)O2)cc1F [Compound 20, ((2R,5S)-5-(5-fluoro-4-(((octyloxy)carbonyl)amino)-2-oxopyrimidin-1 (2H)-yl)-1,3-oxathiolan-2-yl)methyl acetate]
- half-lives in human liver S9 [2]: comparable half-lives

Compound: Nc1nc(=O)n([C@@H]2CS[C@H](CO)O2)cc1F [Emtricitabine, emtricitabine]
- metabolism by CYP enzymes (CYP enzymes): not metabolized
- metabolism by UGT enzymes (UGT enzymes): not metabolized
- toxicity on CD4+ T cells (viability staining) (CD4+ T cells): little to no toxicity

Compound: CCCCCOC(=O)Nc1nc(=O)n([C@@H]2CS[C@H](COC(=O)OCCCCC)O2)cc1F [Compound 5, pentyl (5-fluoro-2-oxo-1-((2R,5S)-2-((((pentyloxy)carbonyl)oxy)methyl)-1,3-oxathiolan-5-yl)-1,2-dihydropyrimidin-4-yl)carbamate]
- Km [2]: 600 µM
- Intrinsic Clearance [2]: 26.33 µL/min/mg
- Vmax [2]: 948 nmol/h/mg
